Laboratory results published in US20190125745A1, “TREATMENT AND DIAGNOSIS OF CANCER” (Rgenix, Inc., priority 2014, published 2019).
Counter-ions that a name gives are not always drawn.

Assays:
[1] = tested on: RCC human renal cancer cells, PANC1 human pancreatic cancer cells, H460 human lung cancer cells; experiment: Trans-well matrigel invasion of renal, pancreatic and lung cancer cells; format: cell-based; settings: 1 μM, 72 hours
Description: FIG. 17. Treatment with the LXR agonist GW3965 inhibits In Vitro tumor cell invasion of renal cancer, pancreatic cancer, and lung cancer.
Following serum starvation, the cells were subjected to the trans-well invasion assay using a matrigel invasion chamber system (354480, BD Biosciences). Invasion chambers were pre-equilibrated prior to the assay by adding 0.5 mL of starvation media to the top and bottom wells. Meanwhile, cancer cells were trypsinized and viable cells were counted using trypan blue. Cancer cells were then resuspended at a concentration of 1×10^5 cells/1 mL starvation media, and 0.5 mL of cell suspension, containing 5×10^4 cells, was seeded into each trans-well. The invasion assay was allowed to proceed for 24 hours at 37′C. […] Following fixation, the inserts were washed in PBS and then cut out and mounted onto slides using VectaShield mounting medium containing DAPI nuclear stain (H-1000, Vector Laboratories). The basal side of each insert was imaged using an inverted fluorescence microscope (Zeiss Axiovert 40 CFL) at 5× magnification, and the number of DAPI-positive cells was quantified using ImageJ.

[2] = tested on: B16F10 mouse melanoma cells; experiment: B16F10 tumor growth and metastasis with LXR or ApoE knockdown or knockout; format: in vivo
Description: FIG. 12. Therapeutic Delivery of LXR Agonists Upregulates Melanoma-Derived and Systemic ApoE Expression. (A-B) ApoE expression levels, quantified by qRT-PCR, in subcutaneous tumors formed by B16F10 mouse melanoma cells injected into C57BL/6 mice. After 5-mm^3 tumor formation, mice were fed a control diet or diet containing GW3965 (20 mg/kg) (A) or T0901317 (20 mg/kg) (B) for 7 days. n=3-4. (C-E) ApoEtranscript expression in primary tumors (C), lung metastases (D), and brain metastases (E) formed by MeWo human melanoma cells grafted onto NOD Scid mice that were administered control chow or chow supplemented with GW3965 (20 mg/kg). ApoE levels were assessed on day 35 (C), day 153 (D), and day 34 (E) post-injection of the cancer cells. n=3-5. (F) Relative expression levels of LXRα, LXRβ, and ApoE were determined by qRT-PCR in B16F10 mouse melanoma cells expressing a control hairpin or an shRNA targeting mouse LXRα (sh_mLXRα), mouse LXRβ (sh_mLXRβ), or mouse ApoE (sh_mApoE). (G-H) ApoE (G) and ABCA1(H) mRNA levels, measured by qRT-PCR, in B16F10 cells expressing a control shRNA or shRNAs targeting mouse LXRβ or mouse ApoE. The cells were treated with DMSO or GW3965 at 5 μM for 48 hours. n=3. (I) ABCA1 mRNA levels, measured by qRT-PCR, in systemic white blood cells extracted from LXRα −/− or LXRβ −/− mice fed a control diet or a GW3965-supplemented diet (20 mg/kg) for 10 days. n=3-4. (J) Relative expression of ApoE mRNA, expressed as the frequency of SAGE tags, in mouse skin and lung tissues was determined using the public mSAGE Expression Matrix database available through the NCI-funded Cancer Genome Anatomy Project (CGAP). (K) Relative expression of ApoE mRNA, determined by qRT-PCR, in MeWo melanoma cells dissociated from lung metastatic nodules (LM2) or primary tumors relative to control unselected MeWo parental cells. n=3.
FIG. 13. LXRβ Agonism Suppresses Melanoma Tumor Growth and Metastasis by Inducing Melanoma-Derived and Systemic ApoE Expression. […] (B) Quantification of ApoE protein expression based on western blots shown in (A). […] Representative tumor images extracted at the end point are shown in the right panel. n=6-18. (E) ApoE transcript levels, quantified by qRT-PCR, in systemic white blood cells extracted from LXRα −/− or LXRβ −/− mice fed a control diet or a GW3965-supplemented diet (20 mg/kg) for 10 days. n=3-5. (F) Subcutaneous tumor growth by 5×10^4 B16F10 control cells or B16F10 cells expressing an shRNA targeting mouse ApoE (sh_mApoE) in C57BL/6-WT or ApoE−/− mice. […] Representative images of tumors extracted at the final day of measurement (d12) are shown on the right. n=8-18. (G) Lung colonization by 5×10^4 B16F10 cells transduced with a control shRNA or sh_mApoE and intravenously injected into C57BL/6-WT or ApoE−/− mice. […] Lung metastasis was quantified on d22 by bioluminescence imaging. Representative lungs extracted at the end point (d22) are shown in the right panel. n=5-10. (H) ApoE protein expression, determined by blinded immunohistochemical analysis, in non-metastatic (n=39) and metastatic (n=34) primary melanoma skin lesion samples obtained from patients at MSKCC. The fraction of ApoE-positively staining cell area was quantified as a percentage of total tumor area.

[3] = in vivo; cited from earlier work
ApoE expression = ApoE expression by qRT-PCR in human melanoma cells
Description: (A-B) Parental MeWo cells were incubated in the presence of DMSO or GW3965 at the indicated concentrations. After 48 hours, total RNA was extracted, and the levels of ApoE (A) and DNAJA4 (B) were determined by qRT-PCR. n=3. (C) Cell invasion by 1×10^5 parental MeWo cells pre-treated with GW3965 or DMSO for 48 hours. n=6-7. p-values based on a one-sided student's t-test. […] (D) Endothelial recruitment by 5×10^4 parental MeWo cells pre-treated with GW3965 or DMSO for 48 hours. n=6-7. p-values based on a one-sided student's t-test. (E) Mice were fed with grain-based chow diet containing GW3965 (20 mg/kg) or a control diet. After 10 days, 4×10^4 parental MeWo cells were tail-vein injected into mice, and the mice were continuously fed with GW3965-containing chow or a control diet throughout the experiment.
(A-C) MeWo (A), HT-144 (B), and WM-266-4 (C) human melanoma cells were treated with GW3965 or T0901317 at the indicated concentrations for 48 hours, and the expression levels of ApoE were analysed by qRT-PCR. n=3. (D) Extracellular ApoE protein levels, quantified by ELISA, in serum-free conditioned media collected from HT-144 human melanoma cells treated with DMSO, GW3965, or T0901317 at 1 μM for 72 hours. n=3-4. […] (I-J) Relative ApoE expression, quantified by qRT-PCR, in MeWo (I) and HT-144 (J) cells transduced with a control shRNA or shRNAs targeting LXRα or LXRβ and subsequently treated with DMSO, GW3965, or T0901317 at 1 μM for 48 hours. n=3-9. (K) Extracellular ApoE protein levels, measured by ELISA, in serum-free conditioned media harvested from HT-144 cells transduced with a control shRNA or an shRNA targeting LXRα or LXRβ and treated with DMSO or GW3965 at 1 μM for 72 hours. n=3.
RNA was extracted from whole cell lysates using the Total RNA Purification Kit (17200, Norgen, Thorold, Canada). 600 ng of total RNA was then reverse transcribed into cDNA using the cDNA First-Strand Synthesis Kit (18080-051, Invitrogen), and quantitative real-time PCR amplification was performed as previously described (Pencheva et al., 2012) using an ABI Prism 7900HT Real-Time PCR System (Applied Biosystems, Austin, Tex.). […]
For every sample, 600 ng of RNA was reverse transcribed into cDNA using the cDNA First-Strand Synthesis kit (Invitrogen). […] Each reaction was carried out in quadruplicates, and ApoE mRNA expression levels were measured by quantitative real-time PCR amplification using an ABI Prism 7900HT Real-Time PCR System (Applied Biosystems). The relative ApoE expression was determined using the ΔΔCt method.

O=C(O)Cc1cccc(OCCCN(Cc2cccc(C(F)(F)F)c2Cl)CC(c2ccccc2)c2ccccc2)c1 [GW3965 108, 3-[3-[N-(2-Chloro-3-trifluoromethylbenzyl)-(2,2-diphenylethyl)amino]propyloxy] phenylacetic acid hydrochloride]
tumor cell invasion in all three cancer types tested [1]: inhibition
metastasis suppression upon genetic inactivation of ApoE ([2]; ApoE−/− mice, diet 20 mg/kg): only partially prevented
suppressing tumor growth in mice genetically inactivated for ApoE ([2]; ApoE−/− mice, diet 20 mg/kg): completely ineffective
induction of ApoE expression upon knockdown of mouse melanoma-cell LXRβ ([2]; B16F10 cells, 5 μM, 48 hours): abrogated
inhibition of metastasis with both melanoma-cell ApoE knockdown and genetic inactivation of systemic ApoE ([2]; diet 20 mg/kg): completely blocked
suppression of tumor growth with melanoma-cell LXRβ knockdown ([2]; diet 20 mg/kg, 7 days): unable to prevent
tumor growth inhibition upon depletion of melanoma-cell ApoE ([2]; diet 20 mg/kg, 7 days): did not prevent
metastasis-suppressive effect upon knockdown of melanoma-cell ApoE ([2]; lung colonization, diet 20 mg/kg): partially prevented
upregulation of systemic ApoE expression in LXR null mice ([2]; white blood cells, diet 20 mg/kg, 10 days): abrogated in LXRβ −/−, but not in LXRα −/− mice
crossing of the blood brain barrier [3]: can efficiently cross the blood brain barrier
potency of inducing ApoE expression in vitro (ApoE expression): potently induce
